# Measurements from PMC3880013, “Toward an Understanding of Agonist Binding to Human Orexin-1 and Orexin-2 Receptors with G-Protein-Coupled Receptor Modeling and Site-Directed Mutagenesis” (Biochemistry, 2013).
# Marks after values point to notes of the source that are not given here.
# What was measured:
# Experiment in all cases: Calcium flux assay, CHO-K1 cells stably expressing Orexin receptor mutant
# Type in all cases: cell-based, human
# hOX2 F227W = hOX2 F227W (5.42) relative to wild type, CHO-K1, Fluo-4AM, this work
# Description: (§1) A combination of overlap and mismatch polymerase chain reaction (PCR) was used to introduce mutations into the corresponding Orexin-1 and Orexin-2 cDNAs as described by us previously.[62] Each mutation was made via the generation of two overlapping PCR fragments with PfuUltra II Fusion HS DNA Polymerase (Strategene). The two products were extracted, and a second round of PCR was performed via combination of both fragments with 5′ and 3′ gene specific primers (containing BamHI and NotI restriction sites, respectively). The resulting gel-purified products were then cloned into expression vector pFB-Neo for subsequent generation of stable cell lines. Constructs were confirmed via sequencing. Each verified cDNA was subsequently used to generate single, stably expressing clones in the CHO-K1 cell line.
# (§2) Standard calcium flux assays were used to assess the functionality of each OX receptor mutant. Each CHO-K1 Orexin mutant was seeded into tissue culture-treated, 384-well, black clear-bottom plates (CellBind Corning 7086), at a density of 7500 cells/well in culture medium and maintained in an incubator (5% CO2 at 37 °C) overnight. The cell medium was removed, and the cells were incubated in 20 μL of assay buffer (4 μM Fluo-4AM in HBSS with 0.1% BSA) for 90 min at 37 °C. After incubation, the dye was removed and 45 μL of fresh buffer, without dye, was applied. Antagonists (5 μL) were applied, and after incubation for an additional 20 min at 37 °C, 20 μL of receptor specific agonists was applied and the calcium flux monitored using a Flex Station (Molecular Devices) over a period of 1 min. In all cases, the EC80 specific for the individual mutant as determined in previous experiments was reported.
# hOX1 Q179A = hOX1 Q179A (4.60) vs wild type, CHO-K1, Fluo-4AM, this work
# Description: as §1, §2
# hOX2 Q187A = hOX2 Q187A (4.60) relative to wild type, CHO-K1, Fluo-4AM, this work
# Description: as §1, §2
# hOX2 Q134A = hOX2 Q134A (3.32) relative to wild type, CHO-K1, Fluo-4AM, this work
# Description: as §1, §2
# hOX1 Y311F = hOX1 Y311F (6.48) relative to wild type, CHO-K1, Fluo-4AM, this work
# Description: as §1, §2
substance,measurement,setting,value
Orexin-B,ratio EC50(mut)/EC50(WT),hOX2 F227W,75.0 ^d fold
same,fold improvement in potency relative to wild type,hOX1 Q179A,72.2 fold improvement
same,ratio EC50(mut)/EC50(WT),hOX2 Q187A,1.7 ^d fold
same,ratio EC50(mut)/EC50(WT),hOX2 Q134A,5.1 ^d fold
same,ratio EC50(mut)/EC50(WT),hOX1 Y311F,0.85 ^d fold
